For the test, the target named is T1, SPI1085g2 (Spirulina subsalsa, UniProt A0ABT3L563).
T1 construct: gene K4A83_08105; second GAF domain (GAF2) only, residues 216-369 of SPI1085; N-terminal polyhistidine tag kept (pETDuet); expressed in E. coli BL21(DE3) with ho1::pcyA or ho1::pebS
T1 sequence (A0ABT3L563 216-369): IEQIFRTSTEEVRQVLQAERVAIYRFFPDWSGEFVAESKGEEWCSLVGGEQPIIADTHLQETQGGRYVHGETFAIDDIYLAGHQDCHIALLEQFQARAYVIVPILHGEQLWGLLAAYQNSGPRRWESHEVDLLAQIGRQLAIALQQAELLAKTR
The experiment in a line: zinc-induced fluorescence on SDS-PAGE; absorbance and acid-urea denaturation. It is filed as binding. To be noted: covalent, KPB pH […].

With `C/C=C1/C(=C/c2[nH]c(/C=C3N=C(/C=C4\NC(=O)C(CC)=C4C)C(C)=C\3CCC(=O)O)c(CCC(=O)O)c2C)NC(=O)[C@@H]1C` [PCB, phycocyanobilin], under “chromophore assembled in E. coli co-expressing ho1 and pcyA”, the “zinc-induced fluorescence on SDS-PAGE; absorbance and acid-urea denaturation” value is reported as “SPI1085g2 can covalently bind PCB, as demonstrated by the zinc-dependent fluorescence observed by SDS-PAGE”.

For `C=CC1=C(C)[C@@H](Cc2[nH]c(/C=C3N=C(/C=C4\NC(=O)[C@H](C)\C4=C/C)C(C)=C\3CCC(=O)O)c(CCC(=O)O)c2C)NC1=O` [PEB, phycoerythrobilin], the “zinc-induced fluorescence on SDS-PAGE; absorbance and acid-urea denaturation” value (chromophore assembled in E. coli co-expressing ho1 and pebS) was “resulted in highly efficient binding of PEB to SPI1085g2”.

The record behind these values is publication PMC9705869, “Chromophorylation of a Novel Cyanobacteriochrome GAF Domain from Spirulina and Its Response to Copper Ions” (Journal of Microbiology and Biotechnology, 2020).
